Measurements published in ChEMBL document CHEMBL1201862, “PubChem BioAssay data set” (2004).
Values joined by “and” are separate entries in the source; they are usually repeats but may differ in a detail not shown here. Equal values may be shown once.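 Assay format: 96-well plates, 48-hour exposure. Here, GI50 denotes the concentration required for 50% inhibition of growth.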 Active and inactive are the calls of the source. Cut-off read from the data, not from the text of the source: active = GI50 up to about 1.1 µM and inactive = higher.

How the values were obtained:
Test in all cases: inhibition of tumour cell growth, NCI panel, 48 h
[1] = system: PC-3
[2] = system: SF-295
[3] = system: 786-0
[4] = system: UACC-257
[5] = system: MCF7
[6] = system: UACC-62
[7] = system: HOP-62
[8] = system: M14
[9] = system: NCI-H460
[10] = system: ACHN
[11] = system: LOX IMVI
[12] = system: SNB-19
[13] = system: SK-MEL-2
[14] = system: HCC 2998
[15] = system: NCI/ADR-RES
[16] = system: SK-OV-3
[17] = system: IGROV-1
[18] = system: UO-31
[19] = system: KM12
[20] = system: HCT-116
[21] = system: MDA-MB-435
[22] = system: NCI-H226
[23] = system: OVCAR-8
[24] = system: EKVX
[25] = system: MOLT-4
[26] = system: SNB-75
[27] = system: A549
[28] = system: Hs-578T
[29] = system: CAKI-1
[30] = system: U-251
[31] = system: HT-29
[32] = system: OVCAR-5
[33] = system: K562
[34] = system: SK-MEL-5
[35] = system: HL-60
[36] = system: SF-539
[37] = system: A498
[38] = system: OVCAR-3
[39] = system: Malme-3M
[40] = system: RXF 393
[41] = system: SK-MEL-28
[42] = system: MDA-N
[43] = system: TK-10
[44] = system: OVCAR-4
[45] = system: COLO 205
[46] = system: HCT-15
[47] = system: SW-620
[48] = system: CCRF-CEM
[49] = system: SN12C
[50] = system: MDA-MB-231
[51] = system: SR
[52] = system: NCI-H23
[53] = system: BT-549
[54] = system: HOP-92
[55] = system: SF-268
[56] = system: NCI-H522
[57] = system: RPMI-8226
[58] = system: T47D
[59] = system: DU-145

Measured: GI50

CC(C)(C)OC(=O)NCC(CNC(=O)OC(C)(C)C)c1nc(C(N)=O)cs1
inactive: [1] > 100 µM | [2] > 100 µM | [3] > 100 µM | [4] > 100 µM | [5] > 100 µM | [6] > 100 µM | [7] > 100 µM | [8] > 100 µM | [9] > 100 µM | [10] > 100 µM | [11] > 100 µM | [12] > 100 µM | [13] > 100 µM | [14] > 100 µM | [15] > 100 µM | [16] > 100 µM | [17] > 100 µM | [18] > 100 µM | [19] > 100 µM | [20] > 100 µM | [21] > 100 µM | [22] > 100 µM | [23] > 100 µM | [24] > 100 µM | [25] > 100 µM | [27] > 100 µM | [28] > 100 µM | [29] > 100 µM | [30] > 100 µM | [31] > 100 µM | [32] > 100 µM | [33] > 100 µM | [34] > 100 µM | [35] > 100 µM | [36] > 100 µM | [37] > 100 µM | [38] > 100 µM | [39] > 100 µM | [40] > 100 µM | [41] > 100 µM | [42] > 100 µM | [43] > 100 µM | [44] > 100 µM | [45] > 100 µM | [47] > 100 µM | [48] > 100 µM | [49] > 100 µM | [50] > 100 µM | [51] > 100 µM | [52] > 100 µM | [53] > 100 µM | [54] > 100 µM
> 100 µM: [46]
active: [26] 0.818 µM

CC(=O)OCC1OC(SC2=N/C(=C\c3ccc(Br)s3)C(=O)N2c2ccccc2)C(OC(C)=O)C(OC(C)=O)C1OC(C)=O (centres undefined)
> 100 µM and 66.8 µM: [46]
inactive: [1] 34.1 µM and 58.5 µM | [2] 39.8 µM and 58.1 µM | [5] 42 µM and 78.9 µM | [6] 30.6 µM and 30.9 µM | [7] 55 µM and 41.7 µM | [9] 30.1 µM and 38.1 µM | [10] 32.1 µM and 52.1 µM | [11] 47.8 µM and 64.3 µM | [12] 56.4 µM and 37.1 µM | [13] 16.7 µM and 32.6 µM | [14] 59 µM and 36.5 µM | [15] 40.9 µM and 43.1 µM | [24] 34.3 µM and 30.7 µM | [28] 48.1 µM and 35.2 µM | [32] > 100 µM | [34] 52.2 µM and 42.9 µM | [37] 41.1 µM and 58.7 µM | [39] 50.6 µM and 53.6 µM | [40] 12.1 µM and 9.64 µM | [55] > 100 µM and 55.8 µM | [41] > 100 µM and 82.8 µM | [42] > 100 µM and 54.6 µM | [43] 40.6 µM and 60.3 µM | [44] 31.8 µM and 41.9 µM | [45] 41.2 µM and 57.9 µM | [56] 21.8 µM and 25.5 µM | [47] > 100 µM and 92 µM | [49] 50.6 µM | [50] 58.5 µM and 42.9 µM | [52] 19 µM and 33.4 µM | [53] 24.4 µM and 41.6 µM

O=[N+]([O-])/C=C/c1ccc2ccccc2c1
inactive: [1] 6.49 µM | [2] 3.99 µM | [3] 2.85 µM | [4] 2.6 µM | [5] 1.86 µM | [6] 15.4 µM | [7] 5.53 µM | [8] 3.99 µM | [9] 6.81 µM | [10] 1.96 µM | [11] 1.87 µM | [12] 2.19 µM | [13] 22.6 µM | [15] 4.27 µM | [16] 2.57 µM | [17] 2.79 µM | [18] 7.41 µM | [19] 1.77 µM | [20] 2.73 µM | [21] 2.04 µM | [22] 7.89 µM | [23] 2.69 µM | [24] 22.7 µM | [26] 2 µM | [27] 8.05 µM | [28] 4.44 µM | [29] 8.43 µM | [30] 1.92 µM | [31] 2.53 µM | [32] 3.52 µM | [33] 3.78 µM | [34] 3.19 µM | [35] 2.37 µM | [36] 3.04 µM | [37] 13 µM | [38] 2.86 µM | [39] 15.6 µM | [40] 2.49 µM | [55] 4.57 µM | [41] 2.23 µM | [59] 4.07 µM | [43] 6.21 µM | [44] 13.3 µM | [45] 2.29 µM | [56] 9.68 µM | [47] 2.47 µM | [48] 4.61 µM | [49] 5.64 µM | [50] 3.82 µM | [52] 3.6 µM | [53] 2.74 µM | [54] 6.62 µM
active: [57] 0.372 µM | [58] 0.692 µM | [51] 0.436 µM
2.22 µM: [46]

O=C(O)CCNC(=O)c1cc(N(CCBr)CCBr)c([N+](=O)[O-])cc1[N+](=O)[O-]
inactive: [1] > 100 µM | [2] > 100 µM | [57] > 100 µM | [3] > 100 µM | [4] > 100 µM | [5] > 100 µM | [7] > 100 µM | [8] > 100 µM | [9] > 100 µM | [10] > 100 µM | [11] > 100 µM | [12] > 100 µM | [13] > 100 µM | [14] > 100 µM | [15] > 100 µM | [16] > 100 µM | [17] > 100 µM | [18] > 100 µM | [19] > 100 µM | [20] > 100 µM | [21] > 100 µM | [22] > 100 µM | [23] > 100 µM | [24] > 100 µM | [25] > 100 µM | [26] > 100 µM | [27] > 100 µM | [28] > 100 µM | [29] > 100 µM | [30] > 100 µM | [31] > 100 µM | [32] > 100 µM | [33] > 100 µM | [34] > 100 µM | [35] > 100 µM | [37] > 100 µM | [38] > 100 µM | [39] > 100 µM | [55] > 100 µM | [41] > 100 µM | [42] > 100 µM | [43] > 100 µM | [44] > 100 µM | [45] > 100 µM | [56] > 100 µM | [47] > 100 µM | [48] > 100 µM | [49] > 100 µM | [50] > 100 µM | [51] > 100 µM | [52] > 100 µM | [53] > 100 µM | [54] > 100 µM
> 100 µM: [46]

O=C1c2ccccc2S(=O)(=O)c2c1cccc2[N+](=O)[O-]
inactive: [1] 3.01 µM | [2] 8.99 µM | [57] 1.63 µM | [3] 1.52 µM | [4] 1.87 µM | [5] 1.25 µM | [6] 1.72 µM | [58] 2.37 µM | [7] 5.32 µM | [8] 1.61 µM | [9] > 5.83 µM | [10] 2.44 µM | [11] 2.14 µM | [12] > 10 µM | [13] 5.85 µM | [14] 5.77 µM | [15] 2.38 µM | [16] > 6.62 µM | [17] 1.9 µM | [18] 2 µM | [19] 2.15 µM | [20] 1.3 µM | [21] 1.59 µM | [22] > 7.26 µM | [23] 2.1 µM | [24] 3.35 µM | [25] 1.85 µM | [26] 3.42 µM | [27] 4.7 µM | [28] 4.25 µM | [29] 4.21 µM | [30] 2.65 µM | [31] 2.57 µM | [32] 3.45 µM | [33] > 10 µM | [35] 1.33 µM | [36] 1.94 µM | [37] 4.66 µM | [38] 1.22 µM | [39] 1.46 µM | [40] 2.9 µM | [55] 3.05 µM | [41] 2 µM | [59] 4.79 µM | [43] 5.69 µM | [44] 2.12 µM | [45] 1.16 µM | [56] 1.18 µM | [47] 1.61 µM | [48] 1.51 µM | [49] 2.2 µM | [50] 2.29 µM | [52] 3.5 µM | [53] 3.45 µM | [54] 4.49 µM
1.35 µM: [46]
active: [34] 0.643 µM | [51] 0.902 µM
